± gives the expanded uncertainty stated by the source.
How the values were obtained:
[1] = refractive index (Na D-line) (dimensionless); conditions: 101.33 kPa, Liquid, Standard Abbe refractometry
[2] = 101.33 kPa, Liquid; for viscosity: Concentric cylinders viscometry; for mass density: Vibrating tube method

SMILES	refractive index ([1]; 293.15 K)	refractive index ([1]; 298.15 K)	refractive index ([1]; 303.15 K)	refractive index ([1]; 308.15 K)	refractive index ([1]; 313.15 K)	refractive index ([1]; 318.15 K)	refractive index ([1]; 323.15 K)	refractive index ([1]; 328.15 K)	refractive index ([1]; 333.15 K)	viscosity ([2]; 293.15 K) [mPa·s]	mass density ([2]; 293.15 K) [kg/m3]	viscosity ([2]; 298.15 K) [mPa·s]	mass density ([2]; 298.15 K) [kg/m3]	viscosity ([2]; 303.15 K) [mPa·s]	mass density ([2]; 303.15 K) [kg/m3]	viscosity ([2]; 308.15 K) [mPa·s]	mass density ([2]; 308.15 K) [kg/m3]	viscosity ([2]; 313.15 K) [mPa·s]	mass density ([2]; 313.15 K) [kg/m3]	viscosity ([2]; 318.15 K) [mPa·s]	further results
CCn1cc[n+](C)c1.O=C([O-])[C@@H]1CCCN1 [1-ethyl-3-methyl-1H-imidazolium L-prolinate]	1.51523 ± 0.00068	1.51372 ± 0.00068	1.51229 ± 0.00068	1.51073 ± 0.00068	1.50924 ± 0.00068	1.50774 ± 0.00068	1.50621 ± 0.00068	1.50454 ± 0.00068	1.5031 ± 0.00068	626.95 ± 23	1158.14 ± 2.6	426.12 ± 14	1155.08 ± 2.6	295.17 ± 8.4	1152 ± 2.5	210.2 ± 5.2	1148.9 ± 2.5	153.57 ± 3.4	1145.78 ± 2.5	114.27 ± 2.3	mass density ([2]; 318.15 K): 1142.64 ± 2.5 kg/m3; viscosity ([2]; 323.15 K): 87.05 ± 1.6 mPa·s; mass density ([2]; 323.15 K): 1139.5 ± 2.5 kg/m3; viscosity ([2]; 328.15 K): 67.61 ± 1.2 mPa·s; mass density ([2]; 328.15 K): 1136.36 ± 2.5 kg/m3; viscosity ([2]; 333.15 K): 54.04 ± 0.92 mPa·s; mass density ([2]; 333.15 K): 1133.22 ± 2.5 kg/m3; viscosity ([2]; 338.15 K): 43.43 ± 0.75 mPa·s; mass density ([2]; 338.15 K): 1130.08 ± 2.4 kg/m3; viscosity ([2]; 343.15 K): 35.47 ± 0.61 mPa·s; mass density ([2]; 343.15 K): 1126.93 ± 2.4 kg/m3; viscosity ([2]; 348.15 K): 29.36 ± 0.51 mPa·s; mass density ([2]; 348.15 K): 1123.79 ± 2.4 kg/m3; viscosity ([2]; 353.15 K): 24.5 ± 0.42 mPa·s; mass density ([2]; 353.15 K): 1120.63 ± 2.4 kg/m3
CCn1cc[n+](C)c1.C[C@H](N)C(=O)[O-] [1-ethyl-3-methylimidazolium L-alaninate]	1.50586 ± 0.00068	1.5041 ± 0.00068	1.50246 ± 0.00068	1.50072 ± 0.00068	1.49908 ± 0.00068	1.49735 ± 0.00068	1.49568 ± 0.00068	1.49395 ± 0.00068	1.49228 ± 0.00068	235.36 ± 6.1	1139.2 ± 2.5	171.19 ± 3.9	1136.1 ± 2.5	126.6 ± 2.6	1133 ± 2.5	93.87 ± 1.8	1129.8 ± 2.4	72.02 ± 1.3	1126.6 ± 2.4	56.62 ± 0.97	mass density ([2]; 318.15 K): 1123.5 ± 2.4 kg/m3; viscosity ([2]; 323.15 K): 45.13 ± 0.78 mPa·s; mass density ([2]; 323.15 K): 1120.3 ± 2.4 kg/m3; viscosity ([2]; 328.15 K): 36.56 ± 0.63 mPa·s; mass density ([2]; 328.15 K): 1117.2 ± 2.4 kg/m3; viscosity ([2]; 333.15 K): 30.1 ± 0.52 mPa·s; mass density ([2]; 333.15 K): 1114 ± 2.4 kg/m3; viscosity ([2]; 338.15 K): 25.02 ± 0.43 mPa·s; mass density ([2]; 338.15 K): 1110.9 ± 2.4 kg/m3; viscosity ([2]; 343.15 K): 21.21 ± 0.37 mPa·s; mass density ([2]; 343.15 K): 1107.8 ± 2.3 kg/m3; viscosity ([2]; 348.15 K): 18.05 ± 0.31 mPa·s; mass density ([2]; 348.15 K): 1104.7 ± 2.3 kg/m3; viscosity ([2]; 353.15 K): 15.51 ± 0.27 mPa·s; mass density ([2]; 353.15 K): 1101.6 ± 2.3 kg/m3
CCn1cc[n+](C)c1.NCC(=O)[O-] [1-ethyl-3-methylimidazolium ammonioacetate]	1.50628 ± 0.00068	1.50473 ± 0.00068	1.50313 ± 0.00068	1.50154 ± 0.00068	1.49988 ± 0.00068	1.49827 ± 0.00068	1.49657 ± 0.00068	1.49488 ± 0.00068	1.49321 ± 0.00068	80.37 ± 1.4	1158 ± 2.6	61.51 ± 1.1	1154.7 ± 2.6	47.75 ± 0.82	1151.6 ± 2.5	37.79 ± 0.65	1148.5 ± 2.5	30.31 ± 0.52	1145.3 ± 2.5	24.89 ± 0.43	mass density ([2]; 318.15 K): 1142.2 ± 2.5 kg/m3; viscosity ([2]; 323.15 K): 20.64 ± 0.36 mPa·s; mass density ([2]; 323.15 K): 1139 ± 2.5 kg/m3; viscosity ([2]; 328.15 K): 17.33 ± 0.3 mPa·s; mass density ([2]; 328.15 K): 1135.8 ± 2.5 kg/m3; viscosity ([2]; 333.15 K): 14.72 ± 0.25 mPa·s; mass density ([2]; 333.15 K): 1132.7 ± 2.5 kg/m3; viscosity ([2]; 338.15 K): 12.64 ± 0.22 mPa·s; mass density ([2]; 338.15 K): 1129.5 ± 2.4 kg/m3; viscosity ([2]; 343.15 K): 10.94 ± 0.19 mPa·s; mass density ([2]; 343.15 K): 1126.3 ± 2.4 kg/m3; viscosity ([2]; 348.15 K): 9.55 ± 0.17 mPa·s; mass density ([2]; 348.15 K): 1123.2 ± 2.4 kg/m3; viscosity ([2]; 353.15 K): 8.38 ± 0.15 mPa·s; mass density ([2]; 353.15 K): 1120.1 ± 2.4 kg/m3
CC[n+]1ccn(C)c1.N[C@@H](CO)C(=O)[O-] [3-ethyl-1-methyl-1H-imidazolium L-serinate]	1.51205 ± 0.00068	1.51069 ± 0.00068	1.50932 ± 0.00068	1.50791 ± 0.00068	1.50654 ± 0.00068	1.50511 ± 0.00068	1.50372 ± 0.00068	1.50224 ± 0.00068	1.50083 ± 0.00068	611.87 ± 23	1198.3 ± 2.8	410.86 ± 13	1195.2 ± 2.8	279.82 ± 7.8	1191.9 ± 2.7	196.7 ± 4.7	1188.6 ± 2.7	142.28 ± 3.1	1185.2 ± 2.7	105.8 ± 2.1	mass density ([2]; 318.15 K): 1182 ± 3 kg/m3; viscosity ([2]; 323.15 K): 80.49 ± 1.4 mPa·s; mass density ([2]; 323.15 K): 1178.9 ± 2.7 kg/m3; viscosity ([2]; 328.15 K): 62.48 ± 1.1 mPa·s; mass density ([2]; 328.15 K): 1175.8 ± 2.7 kg/m3; viscosity ([2]; 333.15 K): 49.31 ± 0.85 mPa·s; mass density ([2]; 333.15 K): 1172.6 ± 2.6 kg/m3; viscosity ([2]; 338.15 K): 39.63 ± 0.68 mPa·s; mass density ([2]; 338.15 K): 1169.5 ± 2.6 kg/m3; viscosity ([2]; 343.15 K): 32.36 ± 0.56 mPa·s; mass density ([2]; 343.15 K): 1166.3 ± 2.6 kg/m3; viscosity ([2]; 348.15 K): 26.82 ± 0.46 mPa·s; mass density ([2]; 348.15 K): 1162.9 ± 2.6 kg/m3; viscosity ([2]; 353.15 K): 22.47 ± 0.39 mPa·s; mass density ([2]; 353.15 K): 1159.8 ± 2.6 kg/m3

Source: the NIST ThermoML archive (doi:10.1021/je2002368)
